Experimental data reported in patent US20140093457A1, “Compositions, methods and kits for remineralization and inhibition of dental caries in teeth” (President and Fellows of Harvard College, priority 2010, published 2014).
Read-outs that look alike come from different tables or passages of the source.

How the values were obtained:
[1] = hydrogen peroxide 38%
Method: The efficacy of removal of the probe by the solution was determined by criteria such as extent of fluorescence remaining on a tooth after rinse, or fluorescence extracted from hydroxyapatite into a rinse solution.

[2] = Removal of OsteoSense 750 from hydroxyapatite, spectrophotometry at 750 nm; conditions: hydrogen peroxide 30%, phosphoric acid 40%
Method: The tubes were vortexed, and the mixture was allowed to settle to obtain a supernatant. Each supernatant was collected and analyzed for probe content using a spectrophotomer.
The HA sample was washed with PBS and a spectrophotometric scan of the wash solution was performed.

[3] = Detection probes on interproximal models of extracted human teeth; conditions: for degree of detection: early stage caries lesion, optical observation; for emission wavelength (nm) / excitation/absorbance wavelength (nm): probe bound to interproximal enamel caries; for optical observation of early stage caries lesion with bound probe (photograph): tooth preparation illuminated and photographed
Method: Interproximal models of extracted human teeth (molars and premolars) were fabricated using silicon impression materials. Interproximal enamel caries at about […] depth and at about 1.5 mm depth were prepared by using areas of interproximal contact regions. The dental preparations having synthetic caries were assessed by radiographic films (bitewings) and a microscope.
A cotton ball was saturated with the detection probe, and placed in contact with the region of the interproximal enamel caries. The bound probe was observed by illuminating over a varying set of different wavelengths of excitation light, followed by detecting light of fluorescent emissions. Furthermore, absorbance of the illuminating wavelengths was detected as appropriate for each probe.
Each tooth preparation having interproximal enamel caries and bound probe was illuminated and photographed.

[4] = Intensity and duration of fluorescence of probe dilutions bound to caries; conditions: for fluorescent intensity compared to IR820 (ICG): dilutions 1:10 and 1:100 of 1 mg/mL stock, deep and shallow lesions
Method: Probes were tested for appropriate concentration, kinetics of binding and retention. Intensity of the illumination light, and the size of the illumination light beam were varied, and data were recorded for each probe. […] The concentration of each probe was varied to determine an optimum concentration for binding during a time period suitable for dental use. Durations of contacting were also tested, for example about 10 seconds, about 20 seconds, about 40 seconds, or about 60 seconds. Binding of the probes to the surface of a tooth having different occlusal cavity conditions were also determined, e.g., plaque, gingival, calculus.
See FIG. 10A and FIG. 10B, and FIG. 11A-FIG. 11D.

[5] = RFU comparison of solutions to release OsteoSense 750 from HA
Method: Variables included conditions of pH, temperature, and presence of 1% calcium chloride.
Three conditions were tested: incubation for 15 minutes at 37° C. after vortexing; adjusting pH to 6.5 at 23° C. after vortexing; and addition of 1% calcium chloride to each solution and incubation at room temperature after vortexing.

[6] = 1% solution with calcium chloride (1%), room temperature
[7] = 1% solution, 15 minutes at 37° C.
[8] = 1% solution, pH 6.5, room temperature
[9] = 5% solution with calcium chloride (1%), room temperature
[10] = 5% solution, 15 minutes at 37° C.
[11] = 5% solution, pH 6.5, room temperature
[12] = 10% solution with calcium chloride (1%), room temperature
[13] = 10% solution, 15 minutes at 37° C.
[14] = 10% solution, pH 6.5, room temperature
[15] = 20% solution with calcium chloride (1%), room temperature
[16] = 20% solution, 15 minutes at 37° C.
[17] = 20% solution, pH 6.5, room temperature

In the case of OO [hydrogen peroxide], the “fluorescence of OsteoSense 750 bound to caries lesion after application with a syringe” value [1] is reported as “eliminated fluorescence”, the “fluorescence of OsteoSense 750 bound to the tooth after rinse” value ([1]; ten minutes after application) is reported as “substantially eliminated” and the “fluorescence of OsteoSense 750 bound to the tooth after rinse” value ([1]; three minutes after application) is reported as “substantially reduced”. The “spectrometric signal at 750 nm in supernatant (release of OsteoSense 750 from HA)” value [2] was “no signal at 750 nm”.
With CC1(C)C(/C=C/C=C/C=C/C=C2\N(CCCCS(=O)(=O)[O-])c3ccc4ccccc4c3C2(C)C)=[N+](CCCCS(=O)(=O)[O-])c2ccc3ccccc3c21.[Na+] [CardioGreen (ICG)] the degree of detection [3] was “Good”, the “emission wavelength (nm)” value [3] was 820-870 nm and the “excitation/absorbance wavelength (nm)” value [3] was 750-800 nm. The “fluorescent intensity compared to IR820 (ICG)” value [4] was “greater fluorescent intensity at each concentration and lesion depth compared to IR820 (ICG)”.
For CC1(C)C(/C=C/C=C/C=C/C=C2\N(CCCCS(=O)(=O)O)c3ccc4ccccc4c3C2(C)C)=[N+](CCCCS(=O)(=O)[O-])c2ccc3ccccc3c21 [Indocyanine Green], the degree of detection [3] was “Weak”, the “emission wavelength (nm)” value [3] was 835 nm and the “excitation/absorbance wavelength (nm)” value [3] was 800 nm.
For C1=Cc2cc3ccc(cc4nc(cc5ccc(cc1n2)[nH]5)C=C4)[nH]3 [Porphyrin], the degree of detection [3] was “Good”, the “emission wavelength (nm)” value [3] was 700 nm and the “excitation/absorbance wavelength (nm)” value [3] was 600 nm. The “optical observation of early stage caries lesion with bound probe (photograph)” value [3] was “Fluorescence of an early stage caries lesion was observed”.
For C=Cc1c(C)c2cc3nc(c4c5[n-]c(cc6nc(cc1[n-]2)C(C)=C6CC)c(C)c5C(=O)[C@@H]4C(=O)OC)[C@@H](CCC(=O)OC/C=C(\C)CCC[C@H](C)CCC[C@H](C)CCCC(C)C)[C@@H]3C.[Mg+2] [Chlorophyll A], the degree of detection [3] was “Good”, the “emission wavelength (nm)” value [3] was 670-900 nm and the “excitation/absorbance wavelength (nm)” value [3] was 614 nm. For the same compound, the “optical observation of early stage caries lesion with bound probe (photograph)” value [3] was “Fluorescence of an early stage caries lesion was observed”.
In the case of cyanine dye 7 [Cy7], the “emission wavelength (nm)” value [3] is reported as 760-800 nm, the “excitation/absorbance wavelength (nm)” value [3] is reported as 700-770 nm and the “retained fluorescence intensity compared to CardioGreen (ICG) diluted 1:10” value ([4]; diluted 1:10, deep and shallow lesions) is reported as “much greater intensity in both deep and shallow lesions”. For the same compound, the “fluorescent intensity compared to IR820 (ICG)” value [4] was “greater fluorescent intensity at each concentration and lesion depth compared to IR820 (ICG)”.
In the case of O=P([O-])([O-])O.[Na+].[Na+] [sodium phosphate dibasic (D), sodium phosphate dibasic], the “% released of total OsteoSense” value [5, 6] is reported as 0.01%, the “% released of total reference value” [5, 6] is reported as 0.02% and the “Raw RFU value” [5, 6] is reported as 0.00 RFU. For the same compound, the “% released of total OsteoSense” value [5, 7] was 2.97%, the “% released of total reference value” [5, 7] was 2.30% and the “Raw RFU value” [5, 7] was 1.11 RFU. For the same compound, the “% released of total OsteoSense” value [5, 8] was 1.81%, the “% released of total reference value” [5, 8] was 2.08% and the “Raw RFU value” [5, 8] was 0.68 RFU. For the same compound, the “% released of total OsteoSense” value [5, 9] was 4.67%, the “% released of total reference value” [5, 9] was 4.11% and the “Raw RFU value” [5, 9] was 1.75 RFU. For the same compound, the “% released of total OsteoSense” value [5, 10] was 14.21%, the “% released of total reference value” [5, 10] was 13.12% and the “Raw RFU value” [5, 10] was 5.33 RFU. For the same compound, the “% released of total OsteoSense” value [5, 11] was 14.64%, the “% released of total reference value” [5, 11] was 14.63% and the “Raw RFU value” [5, 11] was 5.49 RFU. The “% released of total OsteoSense” value [5, 12] was 4.90%, the “% released of total reference value” [5, 12] was 5.28% and the “Raw RFU value” [5, 12] was 1.84 RFU. For the same compound, the “% released of total OsteoSense” value [5, 13] was 27.90%, the “% released of total reference value” [5, 13] was 31.69% and the “Raw RFU value” [5, 13] was 10.46 RFU. For the same compound, the “% released of total OsteoSense” value [5, 14] was 25.75%, the “% released of total reference value” [5, 14] was 21.10% and the “Raw RFU value” [5, 14] was 9.66 RFU. For the same compound, the “% released of total OsteoSense” value [5, 15] was 14.02%, the “% released of total reference value” [5, 15] was 29.08% and the “Raw RFU value” [5, 15] was 5.26 RFU. The “% released of total OsteoSense” value [5, 16] was 35.48%, the “% released of total reference value” [5, 16] was 27.01% and the “Raw RFU value” [5, 16] was 13.30 RFU. The “% released of total OsteoSense” value [5, 17] was 56.19%, the “% released of total reference value” [5, 17] was 55.57% and the “Raw RFU value” [5, 17] was 21.07 RFU.
With COc1cccc2c1C(=O)c1c(O)c3c(c(O)c1C2=O)C[C@@](O)(C(=O)CO)C[C@@H]3O[C@H]1C[C@H](N)[C@H](O)[C@H](C)O1 [Doxorubicin] the degree of detection [3] was “Good”, the “emission wavelength (nm)” value [3] was 630 nm and the “excitation/absorbance wavelength (nm)” value [3] was 480 nm. The “optical observation of early stage caries lesion with bound probe (photograph)” value [3] was “Fluorescence of an early stage caries lesion was observed”.
In the case of CC1(C)C(=CC=C2CCCC(C=CC3=[N+](CCCCS(=O)(=O)[O-])c4ccc5ccccc5c4C3(C)C)=C2Cl)N(CCCCS(=O)(=O)[O-])c2ccc3ccccc3c21.[Na+] [IR820 (ICG)], the degree of detection [3] is reported as “Good”, the “emission wavelength (nm)” value [3] is reported as 845 nm and the “excitation/absorbance wavelength (nm)” value [3] is reported as 745 nm.
With O=P(O)(O)O [phosphoric acid (PA), phosphoric acid] the “% released of total OsteoSense” value [5, 6] was 1.01%, the “% released of total reference value” [5, 6] was 2.27% and the “Raw RFU value” [5, 6] was 0.38 RFU. The “% released of total OsteoSense” value [5, 7] was 4.61%, the “% released of total reference value” [5, 7] was 7.36% and the “Raw RFU value” [5, 7] was 1.73 RFU. For the same compound, the “% released of total OsteoSense” value [5, 8] was 6.17%, the “% released of total reference value” [5, 8] was 18.74% and the “Raw RFU value” [5, 8] was 2.31 RFU. The “% released of total OsteoSense” value [5, 9] was 9.44%, the “% released of total reference value” [5, 9] was 40.79% and the “Raw RFU value” [5, 9] was 3.54 RFU. The “% released of total OsteoSense” value [5, 10] was 9.78%, the “% released of total reference value” [5, 10] was 18.94% and the “Raw RFU value” [5, 10] was 3.67 RFU. The “% released of total OsteoSense” value [5, 11] was 28.38%, the “% released of total reference value” [5, 11] was 39.54% and the “Raw RFU value” [5, 11] was 10.64 RFU. For the same compound, the “% released of total OsteoSense” value [5, 12] was 10.57%, the “% released of total reference value” [5, 12] was 43.29% and the “Raw RFU value” [5, 12] was 3.97 RFU. The “% released of total OsteoSense” value [5, 13] was 4.37%, the “% released of total reference value” [5, 13] was 9.10% and the “Raw RFU value” [5, 13] was 1.64 RFU. The “% released of total OsteoSense” value [5, 14] was 45.32%, the “% released of total reference value” [5, 14] was 67.03% and the “Raw RFU value” [5, 14] was 17.00 RFU. The “% released of total OsteoSense” value [5, 15] was 5.12%, the “% released of total reference value” [5, 15] was 11.99% and the “Raw RFU value” [5, 15] was 1.92 RFU. For the same compound, the “% released of total OsteoSense” value [5, 16] was 3.54%, the “% released of total reference value” [5, 16] was 8.51% and the “Raw RFU value” [5, 16] was 1.33 RFU. For the same compound, the “% released of total OsteoSense” value [5, 17] was 25.34%, the “% released of total reference value” [5, 17] was 39.91% and the “Raw RFU value” [5, 17] was 9.50 RFU. The “spectrometric signal at 750 nm in supernatant (release of OsteoSense 750 from HA)” value [2] was “definite peak at 750 nm”.
